Source: US20130231305A1, “Method of Modulating Protein 14-3-3 Functionality By Facilitating or Inhibiting Phosphorylation” (Medvet Science Pty. Ltd., priority 2010, published 2013)
Substitutions are numbered along the chain they refer to.

Assays:
[1] = test system: 14-3-3 isoforms; test: Phosphorylation of recombinant 14-3-3 isoforms by PKA catalytic subunit; assay type: biochemical; settings: 50 μM in 0.1% ethanol
Protocol: FIG. 3 is an image depicting that sphingosine is required for the phosphorylation of multiple 14-3-3 isoforms in the third helix. (A) Primary sequence alignment of 14-3-3 isoforms in the third helix showing conservation of a Ser phosphorylation site (shown in bold). Asterisks indicate identical amino acids. (B) Recombinant 14-3-3 isoforms were incubated with PKA catalytic subunit in the presence of 50 μM sphingosine, dimethyl-sphingosine (DMS) or FTY 720 (FTY) delivered in 0.1% ethanol (EtOH). Phosphorylated 14-3-3s were detected by autoradiography. Gels were coomassie stained to show equal loading of 14-3-3 substrate.
Substrate 14-3-3 (either 0.5 μg of purified recombinant 14-3-3, a […] of fractions from gel filtration or immunoprecipitates from 14-3-3ζ-Myc transfected COS cells) were added to reaction mixture comprising 0.2 Units of the PKA catalytic subunit, in the presences or absence of sphingolipid (delivered in 0.1% v/v ethanol) in PICA reaction buffer (20 mM MOPS, pH 7.4, 20 mM β-glycerol phosphate, 4 mM EGTA, 1 mM Na3VO4, 60 mM MgCl2, 1 mM DTT, 500 μM ATP, 2.4 μCi [^32P]γ-ATP). Reactions were incubated at 37° C. for 15 minutes. After incubation, reactions were separated on 12.5% SDS-PAGE, coomassie stained and 14-3-3 phosphorylation analysed by autoradiography.

[2] = test system: Jurkat cells; test: Jurkat cell apoptosis (TMRE staining, NucView caspase activity); assay type: cell-based; settings: 2 μM
Text: (A) Immunoblotting of lysates from either parental Jurkat cells (Jurkat) or cells transduced with lentivirus encoding either wild type (Wt) or S58A 14-3-3ζ-Myc with either an anti-14-3-3ζ specific antibody (upper panel) or an anti-pan 14-3-3 antibody (middle panel) to compare the expression level of transduced protein. Myc immunoprecipitates were also immunoblotted with an anti-phospho 14-3-3 binding site antibody (lower panel) to detect proteins associated with 14-3-3ζ-Myc. Endogenous 14-3-3 is indicated by an open arrow and exogenous 14-3-3ζ-Myc with a closed arrow. (B) Lysates from either wild type (Wt) or S58A 14-3-3ζ-Myc expressing Jutkat cells were subjected to in vitro PKA phosphorylation in the presence (+) or absence (−) of […] and the samples immunoblotted after SDS-PAGE separation With either anti-Myc antibody (upper panel), anti-14-3-3ζ antibody (middle panel) or anti-phospho Ser58 14-3-3ζ antibody (lower panel). (C) Serum-starved Jurkat cells were treated with 2 μM FTY720 for 4 h prior to staining with TMRE and NucView™. Forward- versus side-scatter plots (FS versus SS) show the viable cell populations for FTY720 and EtOH (vehicle) treated cells which are analysed in the lower histograms for caspase activity (NucView™) versus ΔΨM (TMRE). (D and E) Jurkat cell lines expressing either wild type or S58A 14-3-3ζ-Myc by lentiviral transduction were serum-starved for 2 h and treated with either 0.1% ethanol vehicle alone (EtOH), 2 μM dimethyl-sphingosine (DMS), or 2 μM FTY720. Cells were analysed by TMRE staining at 4 h (D) or at the time points indicated (E). (D) Representative analyses of TMRE staining with forward- versus side-scatter plots inset to show the similarity in cell populations. (E) Graphical representation of TMRE analysis over time with open symbols representing vehicle (0.1% EtOH) treated cells and closed symbols representing FTY720 treated cells. […]
FIG. 11. […] Effect of TMAs on Jurkat cells after 16 hours incubation assessed by ΔΨM (TMRE) and caspase 3 activity (NucView™) analysis. […] Forward-side-scatter histograms showing cell viability are inset and caspase 3 activity as assessed by NucView™ analysis of viable cells shown. E. Examples of TMA-derivatives of FTY720 that will be analysed for effects on 14-3-3 dimer stability and apoptosis.
Having confirmed appropriate expression and behaviour of Myc-tagged wild type and S58A 14-3-3ζ in the Jurkat lines, these cells were utilised in functional studies to determine the effect of S58A 14-3-3ζ expression on cell survival in response to sphingosine analogues. […] Intriguingly, Jurkat cells expressing S58A 14-3-3ζ-Myc consistently underwent commitment to apoptosis (as detected by the loss of TMRE staining) more slowly than those expressing wild type 14-3-3ζ-Myc (FIG. 8D).

[3] = target: T1, 14-3-3ζ D20N mutant (Homo sapiens, UniProt P63104, D20N); test: Phosphorylation of D20N mutant 14-3-3ζ by PKA catalytic subunit with FTY720; assay type: biochemical; settings: increasing concentrations of FTY720, FIG. 9C
T1 construct: made in house
T1 sequence (P63104 1-245 D20N): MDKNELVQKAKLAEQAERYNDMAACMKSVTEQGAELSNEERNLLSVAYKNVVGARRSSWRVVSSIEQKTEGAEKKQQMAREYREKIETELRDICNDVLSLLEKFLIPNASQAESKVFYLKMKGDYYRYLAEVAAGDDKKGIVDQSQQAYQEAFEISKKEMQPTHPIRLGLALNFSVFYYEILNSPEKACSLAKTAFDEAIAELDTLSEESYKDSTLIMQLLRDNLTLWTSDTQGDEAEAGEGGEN
Text: FIG. 9 A depicts a side view of 14-3-3ζ in space filling representation indicating the orientation of view B. The monomer units (in green and orange) and interacting phospho-peptides, (in cyan) bound in the dual amphipathic grooves are shown. B. Bottom-up view of 14-3-3ζ with the location of S58 phosphorylation site (indicated by arrows and asterisk) and key surface acidic (in yellow) and basic (in blue) residues shown. C. In vitro phosphorylation of 14-3-3ζ wild type and mutants as indicated by catalytic PKA subunit in the presence of increasing concentrations of FTY720. […] D. Mutant 14-3-3 (as indicated) was analysed by native-PAGE and Coomassie staining. The arrow indicates the migration of dimeric 14-3-3 protein. E. A schematic representation of a 14-3-3 dimer showing the buried S58 phosphorylation site in pink, D20, the residue proposed to interact with sphingolipid in yellow and the predicted salt bridge interactions involved in dimerisation. F. & G. In silico docking of FTY720 (shown in cyan in F.) and sphingosine (in pink in G.) in 14-3-3ζ dimer interface.
The dimer interface of 14-3-3 proteins lies at the bottom of the phospho-serine binding groove and comprises a central hole of around 10 Å in diameter in which the Ser58 phosphorylation site is positioned (FIG. 9B, indicated by *). […]

[4] = target: T2, 14-3-3ζ (Homo sapiens, UniProt P63104); test: 14-3-3 phosphorylation by PKA catalytic subunit (autoradiography); assay type: biochemical; settings: increasing concentrations of FTY720, FIG. 9C
T2 construct: made in house
T2 sequence (P63104 1-245): T1 sequence (P63104 1-245 D20N) with N20D

[5] = 4 h, serum-starved Jurkat cells

- phosphorylatability of D20N 14-3-3ζ by PKA catalytic subunit [3]: only weakly phosphorylatable
- phosphorylatability of wild-type 14-3-3ζ by PKA catalytic subunit [4]: increasing phosphorylatability
SMILES: CCCCCCCCc1ccc(CCC(N)(CO)CO)cc1 [FTY720]
- phosphorylation of 14-3-3 isoforms by PKA catalytic subunit [1]: behaved similarly to sphingosine and DMS in modulating 14-3-3 for phosphorylation
- caspase-3 activity (NucView) [2, 5]: activation of caspase-3
- commitment to apoptosis (loss in TMRE staining) [2, 5]: rapid commitment to apoptosis
- commitment to apoptosis in S58A versus wild type 14-3-3ζ-Myc expressing cells (TMRE) ([2]; Jurkat cells expressing S58A 14-3-3ζ-Myc): delayed mitochondrial permeability transition
